Consider 3 molecules from article PMC6278453, “Effects of Osthol Isolated from Cnidium monnieri Fruit on Urate Transporter 1” (Molecules, 2018).

Broadly, the IC50 is the concentration that inhibits the measured activity by half.

Type in all cases: cell-based
Experiment [1] addresses T1, urate transporter 1 (URAT1) (Homo sapiens, UniProt Q96S37).
T1 construct: gene SLC22A12; human URAT1 cDNA in pCMV-SPORT6, transiently transfected into HEK293/PDZK1 cells
T1 sequence (Q96S37 1-553): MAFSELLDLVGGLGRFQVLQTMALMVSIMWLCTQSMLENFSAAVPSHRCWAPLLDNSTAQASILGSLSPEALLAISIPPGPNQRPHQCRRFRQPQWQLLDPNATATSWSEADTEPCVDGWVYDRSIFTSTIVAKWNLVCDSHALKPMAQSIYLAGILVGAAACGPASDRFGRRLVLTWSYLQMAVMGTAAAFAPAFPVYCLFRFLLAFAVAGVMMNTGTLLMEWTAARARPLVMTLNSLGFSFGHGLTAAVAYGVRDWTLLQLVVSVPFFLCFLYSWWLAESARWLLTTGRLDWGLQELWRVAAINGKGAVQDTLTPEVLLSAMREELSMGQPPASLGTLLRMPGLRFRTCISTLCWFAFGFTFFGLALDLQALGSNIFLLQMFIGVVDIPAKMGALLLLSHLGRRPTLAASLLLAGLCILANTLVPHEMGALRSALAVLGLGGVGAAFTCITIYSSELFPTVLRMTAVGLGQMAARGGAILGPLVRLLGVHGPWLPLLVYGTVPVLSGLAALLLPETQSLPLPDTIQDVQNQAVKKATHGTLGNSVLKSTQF
Put plainly: radiolabelled uptake, […], Lineweaver-Burk plot.

The target of experiment [2] is T1, urate transporter 1 (URAT1). Put plainly: [[…]-14C]uric acid uptake in URAT1-transfected HEK293/PDZK1 cells, mock-subtracted; Lineweaver-Burk kinetics.
Experiment [3] shares this target. As to the kind of experiment: [[…]-14C]uric acid uptake in URAT1-transfected HEK293/PDZK1 cells, single concentration […]. As to conditions: read-out: Urate Uptake (% of Control).

Regarding `O=c1[nH]c(=O)c2[nH]c(=O)[nH]c2[nH]1` [uric acid], the “radiolabelled uptake, 25-200 μM, Lineweaver-Burk plot” value in experiment [1] is “The uptakes of uric acid into the cells (V) were measured, and a Lineweaver–Burk plot was made”. In experiment [2], `COc1ccc2ccc(=O)oc2c1CC=C(C)C` [compound 1, osthol] showed an IC50 of 78.8 µM. For the molecule `CC(C)=CCc1c(O)ccc2ccc(=O)oc12` [osthenol], the remaining activity at 100 µM in experiment [3] was found to be 31 ± 4%.
